Data on one compound can be found in patent US10188695B2, “Calcineurin inhibitors for use in the treatment of lesional vestibular disorders” (Institut National De La Santé Et De La Recherche Médicale, priority 2012, dated 2019).

The subject of this experiment is excitotoxically induced lasting vestibular deficits. The experiment in a line: Kainic acid excitotoxic vestibular lesion in rats, spontaneous nystagmus by infra-red videonystagmography (FK-506 treatment). The class given is in vivo, rat. The conditions noted are these: t=24 h. The method, then:
Two inverted 3 mm bolts partially encased in dental acrylic were surgically fixed to the skull of female Long-Evans rats under deep ketamine-xylazine anesthesia using self-tapping surgical screws and cyanoacrylate. Each animal was allowed to recover for 1 week before experiencing 4 training sessions with head fixation (5-10 min) of increasing duration in the week preceding the experiments.
Under visual control using a surgical microscope, each rat received transtympanic injections of 50 μL 15 mM kainic acid in physiological serum with 10 mg/mL benzyl alcohol at t=0 h and 25 μL 15 mM kanic acid in physiological serum with 10 mg/mL benzyl alcohol at t=2 h.
At t=1 h the behaviorally associated vestibular deficits of each transtympanically injected animal was determined using 5 classical criteria each scored on a 0-4 scale: Circling, head-bobbing, degree of head-tilt, tail-hanging reflex deficit and air-righting reflex deficit. […]
Spontaneous eye-movements were recorded at t=1 h and t=24 h in the dark using an ISCAN ETL-200 infra-red videooculography system under head-fixed conditions. […]
The spontaneous nystagmus frequency in videooculography traces recorded at t=1 h (pre-treatment) and t=24 h (chronic deficit) was determined using custom routines written in MatLab R2011b (The Mathworks, Natick, Mass.). […]

The structures appear in SMILES notation.

As for `C=CC[C@@H]1/C=C(\C)C[C@H](C)C[C@H](OC)[C@H]2O[C@@](O)(C(=O)C(=O)N3CCCC[C@H]3C(=O)O[C@H](/C(C)=C/[C@@H]3CC[C@@H](O)[C@H](OC)C3)[C@H](C)[C@@H](O)CC1=O)[C@H](C)C[C@@H]2OC` [FK-506, tacrolimus], the “normalized chronic spontaneous nystagmus frequency” value (normalized to group mean at t=1 h, single i.p. injection 2.5 mg/kg at t=1 h, Long-Evans rats, in the dark) is given as 26.9±11.8%. Moreover, for the setting “single i.p. injection 2.5 mg/kg, p=0.014”, the “reduction of lasting vestibular deficits (spontaneous nystagmus in the dark) vs sham” value stood at 43%.
